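The compound was tested at five concentrations on cells cultured in 96-well plates, with a 48-hour exposure period. GI50 marks 50% less growth.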 Calls of active or inactive are those of the source. No stated cut-off is given here; in the data, active = GI50 up to about 1.1 µM and inactive = higher.
What was measured:
Assay in all cases: NCI-60 cell line screen, 48 h
[1] = tested on: OVCAR-4
[2] = tested on: EKVX
[3] = tested on: MDA-MB-435
[4] = tested on: KM12
[5] = tested on: COLO 205
[6] = tested on: HCT-116
[7] = tested on: NCI/ADR-RES
[8] = tested on: HOP-62
[9] = tested on: LOX IMVI
[10] = tested on: SR
[11] = tested on: NCI-H522
[12] = tested on: NCI-H226
[13] = tested on: HT-29
[14] = tested on: RXF 393
[15] = tested on: A549
[16] = tested on: RPMI-8226
[17] = tested on: OVCAR-5
[18] = tested on: UACC-62
[19] = tested on: 786-0
[20] = tested on: ACHN

| SMILES | GI50 [1] | GI50 [2] | GI50 [3] | GI50 [4] | GI50 [5] | GI50 [6] | GI50 [7] | GI50 [8] | GI50 [9] | GI50 [10] | GI50 [11] | GI50 [12] | GI50 [13] | GI50 [14] | GI50 [15] | GI50 [16] | GI50 [17] | GI50 [18] | GI50 [19] | GI50 [20] |
| --- | --- | --- | --- | --- | --- | --- | --- | --- | --- | --- | --- | --- | --- | --- | --- | --- | --- | --- | --- | --- |
| O=[N+]([O-])c1oc2ccc3ccccc3c2c1CCO | 3.18 µM (inactive) | 0.447 µM (active) | 1.53 µM (inactive) | 9.33 µM (inactive) | 0.346 µM (active) | 2.29 µM (inactive) | 4.79 µM (inactive) | 16.6 µM (inactive) | 2.14 µM (inactive) | 0.114 µM (active) | 1.63 µM (inactive) | 8.75 µM (inactive) | 2.94 µM (inactive) | 1.58 µM (inactive) | 1.9 µM (inactive) | 3.96 µM (inactive) | 7.23 µM (inactive) | 2.87 µM (inactive) | 5.27 µM (inactive) | 1.58 µM (inactive) |
| COc1cc(C2C(Cl)C(=O)N2c2c(C)n(C)n(-c3ccccc3)c2=O)ccc1O (stereo not given) | 16.5 µM (inactive) | 35 µM (inactive) | 16.4 µM (inactive) | 17.7 µM (inactive) | 16.3 µM (inactive) | 6.37 µM (inactive) | 30.3 µM (inactive) | 23.7 µM (inactive) | 16.5 µM (inactive) | 12 µM (inactive) | 13.6 µM (inactive) | 22.3 µM (inactive) | 17.7 µM (inactive) | 18.1 µM (inactive) | 26.2 µM (inactive) | 18.1 µM (inactive) | 21.5 µM (inactive) | 16 µM (inactive) | 11.9 µM (inactive) | 20.1 µM (inactive) |
| C=C1[C@H](OCC(C)C)[C@@H](O)[C@@H](OC(=O)c2cccnc2)C(C)(C)/C=C/[C@H](C)[C@H](OC(C)=O)[C@@]2(O)C[C@@](C)(OC(C)=O)[C@H](OC(=O)c3ccccc3)[C@@H]2[C@H]1OC(C)=O | 1.9 µM (inactive) | 1.04 µM (active) | 0.167 µM (active) | 1.34 µM (inactive) | 0.0713 µM (active) | 1.59 µM (inactive) | 1.29 µM (inactive) | 0.0681 µM (active) | 1.17 µM (inactive) | 1.16 µM (inactive) | 0.944 µM (active) | 1.39 µM (inactive) | 0.0662 µM (active) | 4.24 µM (inactive) | 0.0459 µM (active) | 0.741 µM (active) | > 2.43 µM (inactive) | 2.07 µM (inactive) | 1.67 µM (inactive) | 0.161 µM (active) |
| CCOC(=O)NC(=O)c1cn(CCCOC(=O)CCCCCCCCC(=O)OCCCn2cc(C(=O)NC(=O)OCC)c(=O)n(C)c2=O)c(=O)n(C)c1=O | > 100 µM (inactive) | > 100 µM (inactive) | > 100 µM (inactive) | > 100 µM (inactive) | > 100 µM (inactive) | > 100 µM (inactive) | > 100 µM (inactive) | > 70.6 µM (inactive) | > 100 µM (inactive) | > 100 µM (inactive) | > 100 µM (inactive) | > 100 µM (inactive) | > 100 µM (inactive) | > 82.8 µM (inactive) | > 100 µM (inactive) | > 100 µM (inactive) | > 100 µM (inactive) | > 100 µM (inactive) | > 76.6 µM (inactive) | > 100 µM (inactive) |
| COc1ccc(-c2cc(-c3ccco3)c(C#N)c(=S)n2C2OC(COC(C)=O)C(OC(C)=O)C(OC(C)=O)C2OC(C)=O)cc1 (stereo not given) | 2.54 µM (inactive) | 13.5 µM (inactive) | 7.71 µM (inactive) | 11.9 µM (inactive) | 4.36 µM (inactive) | 6.79 µM (inactive) | 12.7 µM (inactive) | 2.61 µM (inactive) | 3.64 µM (inactive) | > 10 µM (inactive) | 4.56 µM (inactive) | 5.7 µM (inactive) | 3.24 µM (inactive) | 9.53 µM (inactive) | 5.9 µM (inactive) | 2.96 µM (inactive) | 15.6 µM (inactive) | 3.72 µM (inactive) | 3.28 µM (inactive) | 6.82 µM (inactive) |
